From ChEMBL document CHEMBL4732126, “Design, synthesis, and biodistribution studies of new analogues of marine alkaloids: Potent in vitro and in vivo fungicidal agents against Candida spp” (Eur J Med Chem, 2021)
In brackets after ≈: the same amount, converted by molar mass. Activity calls are given as the source filed them. No cut-off for these calls is given here.

Assays:
Nakaseomyces glabratus [1] = assay: Antifungal activity against Candida glabrata ATCC 2001 assessed as reduction in fungal growth incubated for 48 hrs by broth microdilution method; type: functional
Candida tropicalis [2] = assay: Antifungal activity against Candida tropicalis ATCC 28707 assessed as reduction in fungal growth incubated for 48 hrs by broth microdilution method; type: functional
Candida tropicalis [3] = assay: Antifungal activity against Candida tropicalis ATCC 28707 assessed as reduction in fungal growth incubated for 48 hrs in presence of sorbitol by broth microdilution method; type: functional
Nakaseomyces glabratus [4] = assay: Antifungal activity against Candida glabrata ATCC 2001 assessed as reduction in fungal growth incubated for 48 hrs in presence of sorbitol by broth microdilution method; type: functional
Candida albicans [5] = assay: Antifungal activity against Candida albicans ATCC 10231 assessed as reduction in fungal growth incubated for 48 hrs by broth microdilution method; type: functional
Candida albicans [6] = assay: Antifungal activity against Candida albicans ATCC 10231 assessed as reduction in fungal growth incubated for 48 hrs in presence of sorbitol by broth microdilution method; type: functional
Pichia kudriavzevii [7] = assay: Antifungal activity against Candida krusei ATCC 34135 assessed as reduction in fungal growth incubated for 48 hrs by broth microdilution method; type: functional
Pichia kudriavzevii [8] = assay: Antifungal activity against Candida krusei ATCC 34135 assessed as reduction in fungal growth incubated for 48 hrs in presence of sorbitol by broth microdilution method; type: functional
Candida albicans [9] = assay: Antifungal activity against Candida albicans isolate 6 assessed as reduction in fungal growth incubated for 48 hrs by broth microdilution method; type: functional
Candida albicans [10] = assay: Antifungal activity against Candida albicans ATCC 18804 assessed as reduction in fungal growth incubated for 48 hrs by broth microdilution method; type: functional
Candida albicans [11] = assay: Antifungal activity against Candida albicans isolate 10 assessed as reduction in fungal growth incubated for 48 hrs by broth microdilution method; type: functional
Candida albicans [12] = assay: Antifungal activity against Candida albicans isolate 11 assessed as reduction in fungal growth incubated for 48 hrs by broth microdilution method; type: functional
Candida tropicalis [13] = assay: Fungicidal activity against Candida tropicalis ATCC 28707 assessed as fungal killing incubated for 48 hrs followed by plating on SD agar plate; type: functional; settings: read-out: MFC99.9
Candida albicans [14] = assay: Antifungal activity against Candida albicans isolate 12 assessed as reduction in fungal growth incubated for 48 hrs by broth microdilution method; type: functional
Candida albicans [15] = assay: Antifungal activity against Candida albicans isolate 8 assessed as reduction in fungal growth incubated for 48 hrs by broth microdilution method; type: functional
Candida albicans [16] = assay: Antifungal activity against Candida albicans isolate 9 assessed as reduction in fungal growth incubated for 48 hrs by broth microdilution method; type: functional
Candida albicans [17] = assay: Antifungal activity against Candida albicans isolate 7 assessed as reduction in fungal growth incubated for 48 hrs by broth microdilution method; type: functional
Candida albicans [18] = assay: Antifungal activity against Candida albicans isolate 13 assessed as reduction in fungal growth incubated for 48 hrs by broth microdilution method; type: functional
Candida albicans [19] = assay: Fungicidal activity against Candida albicans isolate 13 assessed as fungal killing incubated for 48 hrs followed by plating on SD agar plate; type: functional; settings: read-out: MFC99.9
Candida albicans [20] = assay: Fungicidal activity against Candida albicans isolate 3 assessed as fungal killing incubated for 48 hrs followed by plating on SD agar plate; type: functional; settings: read-out: MFC99.9
Pichia kudriavzevii [21] = assay: Antifungal activity against Candida krusei ATCC 34135 assessed as reduction in fungal growth incubated for 48 hrs in presence of ergosterol by broth microdilution method; type: functional
Candida albicans [22] = assay: Antifungal activity against Candida albicans ATCC 10231 assessed as reduction in fungal growth incubated for 48 hrs in presence of ergosterol by broth microdilution method; type: functional
Candida albicans [23] = assay: Antibiofilm activity against Candida albicans ATCC 10231 assessed as reduction in biofilm formation at 0.24 to 7.81 ug/ml by crystal violet staining based spectrophotometric analysis; type: functional, organism-based; settings: dose 0.24-7.81 µg/ml
Candida albicans [24] = assay: Fungicidal activity against Candida albicans isolate 12 assessed as fungal killing incubated for 48 hrs followed by plating on SD agar plate; type: functional; settings: read-out: MFC99.9
Candida albicans [25] = assay: Fungicidal activity against Candida albicans isolate 6 assessed as fungal killing incubated for 48 hrs followed by plating on SD agar plate; type: functional; settings: read-out: MFC99.9
Candida albicans [26] = assay: Fungicidal activity against Candida albicans ATCC 10231 assessed as reduction in fungal load at 7.8 ug/ml incubated for 36 hrs followed by inoculation on SD agar plate for 48 hrs by time-kill assay; type: functional, organism-based; settings: dose 7.8 µg/ml, time 84.0 hrs
Candida albicans [27] = assay: Antifungal activity against Candida albicans isolate 4 assessed as reduction in fungal growth incubated for 48 hrs by broth microdilution method; type: functional
Candida albicans [28] = assay: Fungicidal activity against Candida albicans ATCC 10231 assessed as fungal killing incubated for 48 hrs followed by plating on SD agar plate; type: functional; settings: read-out: MFC99.9
Candida albicans [29] = assay: Antifungal activity against Candida albicans isolate 5 assessed as reduction in fungal growth incubated for 48 hrs by broth microdilution method; type: functional
Candida albicans [30] = assay: Fungicidal activity against Candida albicans isolate 9 assessed as fungal killing incubated for 48 hrs followed by plating on SD agar plate; type: functional; settings: read-out: MFC99.9
Candida albicans [31] = assay: Antifungal activity against Candida albicans isolate 1 assessed as reduction in fungal growth incubated for 48 hrs by broth microdilution method; type: functional
Nakaseomyces glabratus [32] = assay: Antifungal activity against Candida glabrata ATCC 2001 assessed as reduction in fungal growth incubated for 48 hrs in presence of ergosterol by broth microdilution method; type: functional
Pichia kudriavzevii [33] = assay: Fungicidal activity against Candida krusei ATCC 34135 assessed as fungal killing incubated for 48 hrs followed by plating on SD agar plate; type: functional; settings: read-out: MFC99.9
Candida albicans [34] = assay: Disruption of cell membrane in Candida albicans ATCC 10231 assessed as increase in intracellular leakage at MIC incubated for 24 hrs by UV spectrophotometric analysis; type: cell-based
Candida albicans [35] = assay: Fungicidal activity against Candida albicans isolate 7 assessed as fungal killing incubated for 48 hrs followed by plating on SD agar plate; type: functional; settings: read-out: MFC99.9
Nakaseomyces glabratus [36] = assay: Fungicidal activity against Candida glabrata ATCC 2001 assessed as fungal killing incubated for 48 hrs followed by plating on SD agar plate; type: functional; settings: read-out: MFC99.9
Candida albicans [37] = assay: Fungicidal activity against Candida albicans ATCC 10231 assessed as reduction in fungal load at 31.25 ug/ml incubated for 12 hrs followed by inoculation on SD agar plate for 48 hrs by time-kill assay; type: functional, organism-based; settings: dose 31.25 µg/ml, time 60.0 hrs
Candida albicans [38] = assay: Fungicidal activity against Candida albicans isolate 5 assessed as fungal killing incubated for 48 hrs followed by plating on SD agar plate; type: functional; settings: read-out: MFC99.9
Nakaseomyces glabratus [39] = assay: Disruption of cell membrane in Candida glabrata ATCC 2001 assessed as increase in intracellular leakage at MIC incubated for 24 hrs by UV spectrophotometric analysis; type: cell-based
Candida albicans [40] = assay: Antifungal activity against Candida albicans ATCC 10231 assessed as inhibition of yeast to hypha morphological transition at 15.6 ug/ml measured upto 72 hrs by microscopic analysis; type: functional, organism-based; settings: dose 15.6 µg/ml, time hrs <=72
Candida albicans [41] = assay: Fungicidal activity against Candida albicans isolate 4 assessed as fungal killing incubated for 48 hrs followed by plating on SD agar plate; type: functional; settings: read-out: MFC99.9
Candida albicans [42] = assay: Fungicidal activity against Candida albicans isolate 2 assessed as fungal killing incubated for 48 hrs followed by plating on SD agar plate; type: functional; settings: read-out: MFC99.9
Candida albicans [43] = assay: Antifungal activity against Candida albicans isolate 3 assessed as reduction in fungal growth incubated for 48 hrs by broth microdilution method; type: functional
Pichia kudriavzevii [44] = assay: Disruption of cell membrane in Candida krusei ATCC 34135 assessed as increase in intracellular leakage at MIC incubated for 24 hrs by UV spectrophotometric analysis; type: cell-based
Candida tropicalis [45] = assay: Antifungal activity against Candida tropicalis ATCC 28707 assessed as reduction in fungal growth incubated for 48 hrs in presence of ergosterol by broth microdilution method; type: functional
Candida tropicalis [46] = assay: Disruption of cell membrane in Candida tropicalis ATCC 28707 assessed as increase in intracellular leakage at MIC incubated for 24 hrs by UV spectrophotometric analysis; type: cell-based
Candida albicans [47] = assay: Antibiofilm activity against Candida albicans ATCC 10231 assessed as reduction in mature biofilm at 125 ug/ml incubated for 48 hrs by crystal violet staining based spectrophotometric analysis relative to control; type: functional
Candida albicans [48] = assay: Fungicidal activity against Candida albicans isolate 10 assessed as fungal killing incubated for 48 hrs followed by plating on SD agar plate; type: functional; settings: read-out: MFC99.9
Candida albicans [49] = assay: Fungicidal activity against Candida albicans isolate 8 assessed as fungal killing incubated for 48 hrs followed by plating on SD agar plate; type: functional; settings: read-out: MFC99.9
Candida albicans [50] = assay: Fungicidal activity against Candida albicans isolate 1 assessed as fungal killing incubated for 48 hrs followed by plating on SD agar plate; type: functional; settings: read-out: MFC99.9
Candida albicans [51] = assay: Fungicidal activity against Candida albicans ATCC 18804 assessed as fungal killing incubated for 48 hrs followed by plating on SD agar plate; type: functional; settings: read-out: MFC99.9
Candida albicans [52] = assay: Antifungal activity against Candida albicans isolate 2 assessed as reduction in fungal growth incubated for 48 hrs by broth microdilution method; type: functional
Candida albicans [53] = assay: Fungicidal activity against Candida albicans isolate 11 assessed as fungal killing incubated for 48 hrs followed by plating on SD agar plate; type: functional; settings: read-out: MFC99.9

Compound: CC[C@H](C)C[C@H](C)CCCCCCCCC(=O)N[C@H]1C[C@@H](O)[C@@H](NCCN)NC(=O)[C@@H]2[C@@H](O)CCN2C(=O)[C@H]([C@H](O)CCN)NC(=O)[C@H]([C@H](O)[C@@H](O)c2ccc(O)cc2)NC(=O)[C@@H]2C[C@@H](O)CN2C(=O)[C@H]([C@@H](C)O)NC1=O [CASPOFUNGIN]
- MIC (Nakaseomyces glabratus [1]): 0.5 µg/mL (≈ 0.457 µM)
- MIC (Candida tropicalis [2]): 0.0625 µg/mL (≈ 0.0572 µM)
- MIC (Candida tropicalis [3]): 0.25 µg/mL
- MIC (Nakaseomyces glabratus [4]): 1 µg/mL
- MIC (Candida albicans [5]): 4 µg/mL (≈ 3.66 µM)
- MIC (Candida albicans [6]): 15.6 µg/mL
- MIC (Pichia kudriavzevii [7]): 0.0625 µg/mL (≈ 0.0572 µM)
- MIC (Pichia kudriavzevii [8]): 0.25 µg/mL

Compound: [N-]=[N+]=NCCCCCCCCCCCCOCCCc1cccnc1
- MIC (Candida albicans [9]): > 500 µg/mL
- MIC (Candida albicans [10]): > 500 µg/mL
- MIC (Nakaseomyces glabratus [1]): > 500 µg/mL
- MIC (Candida tropicalis [2]): 40 µg/mL (≈ 115 µM)
- MIC (Candida albicans [5]): > 500 µg/mL
- MIC (Candida albicans [11]): > 500 µg/mL
- MIC (Candida albicans [12]): > 500 µg/mL
- MFC (Candida tropicalis [13]): 160 µg/mL (≈ 462 µM)
- MIC (Candida albicans [14]): > 500 µg/mL
- MIC (Candida albicans [15]): > 500 µg/mL
- MIC (Candida albicans [16]): > 500 µg/mL
- MIC (Pichia kudriavzevii [7]): > 500 µg/mL
- MIC (Candida albicans [17]): > 500 µg/mL
- MIC (Candida albicans [18]): > 500 µg/mL

Compound: CCCC[n+]1cccc(CCCOCCCCCCCCCCCCN=[N+]=[N-])c1.[I-]
- MFC (Candida albicans [19]): 7.8 µg/mL
- MIC (Candida albicans [9]): 15.6 µg/mL
- MFC (Candida albicans [20]): 3.9 µg/mL
- MIC (Pichia kudriavzevii [21]): 3.9 µg/mL
- MIC (Candida albicans [22]): 7.8 µg/mL
- Activity (Candida albicans [23]): Active
- MFC (Candida albicans [24]): 7.8 µg/mL
- MFC (Candida albicans [25]): 31.2 µg/mL
- MIC (Candida albicans [10]): 7.8 µg/mL
- Activity (Candida albicans [26]): Active
- MIC (Candida albicans [27]): 1.95 µg/mL
- MFC (Candida albicans [28]): 31.2 µg/mL
- MIC (Nakaseomyces glabratus [1]): 7.8 µg/mL
- MIC (Candida albicans [29]): 3.9 µg/mL
- MFC (Candida albicans [30]): 31.2 µg/mL
- MIC (Candida albicans [31]): 7.8 µg/mL
- MIC (Candida tropicalis [2]): 7.8 µg/mL
- MIC (Candida tropicalis [3]): 7.8 µg/mL
- MIC (Nakaseomyces glabratus [32]): 15.6 µg/mL
- MIC (Nakaseomyces glabratus [4]): 7.8 µg/mL
- MFC (Pichia kudriavzevii [33]): 3.9 µg/mL
- Activity (Candida albicans [34]): Active
- MFC (Candida albicans [35]): 7.8 µg/mL
- MFC (Nakaseomyces glabratus [36]): 15.6 µg/mL
- MIC (Candida albicans [5]): 7.8 µg/mL
- MIC (Candida albicans [11]): 15.6 µg/mL
- MIC (Candida albicans [12]): 7.8 µg/mL
- Activity (Candida albicans [37]): Active
- MFC (Candida albicans [38]): 3.9 µg/mL
- MIC (Candida albicans [6]): 7.8 µg/mL
- Activity (Nakaseomyces glabratus [39]): Active
- Activity (Candida albicans [40]): Active
- MFC (Candida albicans [41]): 3.9 µg/mL
- MFC (Candida tropicalis [13]): 15.6 µg/mL
- MFC (Candida albicans [42]): 7.8 µg/mL
- MIC (Candida albicans [43]): 3.9 µg/mL
- MIC (Candida albicans [14]): 7.8 µg/mL
- Activity (Pichia kudriavzevii [44]): Active
- MIC (Candida tropicalis [45]): 7.8 µg/mL
- MIC (Candida albicans [15]): 3.9 µg/mL
- Activity (Candida tropicalis [46]): Active
- inhibition at 125 µg/mL (Candida albicans [47]): 50%
- MIC (Candida albicans [16]): 15.6 µg/mL
- MFC (Candida albicans [48]): 31.2 µg/mL
- MFC (Candida albicans [49]): 7.8 µg/mL
- MIC (Pichia kudriavzevii [7]): 3.9 µg/mL
- MIC (Candida albicans [17]): 7.8 µg/mL
- MFC (Candida albicans [50]): 62.5 µg/mL
- MIC (Candida albicans [18]): 7.8 µg/mL
- MIC (Pichia kudriavzevii [8]): 3.9 µg/mL
- MFC (Candida albicans [51]): 125 µg/mL
- MIC (Candida albicans [52]): 7.8 µg/mL
- MFC (Candida albicans [53]): 7.8 µg/mL
